Data: ChEMBL document CHEMBL3507680, “University of Dundee, Gates Library screen for HepG2 cell viability”

Assay: Human HepG2 cell viability assay in 384 well format
Assay type: toxicity, cell-based
Parameters: dose 125 nL, time 70.5 hour; cytotoxicity at 70.5 h: concentration not given beside the values
Settings: HepG2 cells, read-out: Inhibition

SMILES	cytotoxicity at 70.5 h [%]
O=C(NCc1cccs1)[C@H]1CC[C@@H]2[C@@H](CCN2c2ncccn2)O1	2.87
Cc1ccc(CN2CCCn3c(nc(Cn4cncn4)cc3=O)C2)s1	-19.3
Cc1noc(C)c1CN1CCO[C@H]2CN(CC3CC3)C[C@H]21	-28.9
Cc1cnn(C2CN(Cc3nnc(C4CC4)o3)C2)c1	-10.1
Cc1ccc(S(=O)(=O)NC[C@H]2OC[C@@H](NCc3ccccn3)[C@@H]2O)cc1	-6.39
COCC(=O)NCc1cc(=O)n2c(n1)CN(CC1CCOC1)CCC2 (stereo unspecified)	15.2
COc1ccccc1C1(CNc2ccc(C(=O)N(C)C)cn2)CC1	25.8
CCN1CCN(S(=O)(=O)N2CCC(OC)CC2)[C@H]2CS(=O)(=O)C[C@H]21	-9.02
Cc1cc(C(=O)N2CCn3cc(CN4CCCC4)nc3C2)no1	-13.3
Cc1ccc2c(cnn2CCC(=O)NCc2csc(C)n2)c1	-14.7
Oc1ccccc1N1CCN(c2ncnc3sc4c(c23)CCNC4)CC1	2.19
CS(=O)(=O)N1CCCC12CCCN(C(=O)c1cc(F)cc(F)c1)C2 (stereo unspecified)	-11.7
CCN(CC)Cc1ccc(C(=O)NC2CCc3cc(Br)ccc32)o1 (stereo unspecified)	-24.6
Cc1noc(CN2CCN(CC(C)O)CC2)n1 (stereo unspecified)	2.13
CN1CC(C(=O)N2CCN(c3cccc(Cl)c3)C(=O)C2)NC1=O (stereo unspecified)	-7.63
CC(C)C(O)CNC(=O)Nc1cnn(Cc2ccccc2)c1 (stereo unspecified)	-1.15
COc1cccc2c1ccn2CCC(=O)N1CCC(C(=O)O)CC1	-5.23
Cc1cc(NC(=O)CN2CCn3c(nnc3C(C)C)C2)n(C)n1	34.7
CCC(=O)N1CCc2nc(N3CCOCC3)nc(N(C)C)c2CC1	35.1
COc1ccc(CN2CCC3(CC2)NC(=O)CC3c2ccncc2)cc1 (stereo unspecified)	-7.29
COc1cccc(N2CCN(Cc3nccc(OC)c3OC)CC2=O)c1	-0.0493
COc1ccc(CN2CCC3(CC(Nc4ccncn4)C3)C2)c(OC)c1 (stereo unspecified)	-6.97
CC(C)N1CCCn2nc(C(=O)NCCc3ccccn3)cc2C1	-9.32

SMILES	cytotoxicity at 70.5 h [%]
COc1cccc(-c2cc(NCCN(C)C)nc3[nH]ccc23)n1	-6.53
COc1ncccc1-c1nc(-c2ccccn2)nn1C1CCN(C)CC1	-6.87
O=C(Nc1cnc(N2CCOCC2)nc1)c1ccc(C(F)(F)F)cc1	6.8
CCCNC(=O)c1ccc(NC(=O)NC(C)c2ccccn2)cc1 (stereo unspecified)	-8.01
CCOc1cccc(C(=O)N2CCC3(CC2)[C@H](O)C[C@@H]3OC)c1	0.338
c1cc(CN2CCO[C@H]3[C@H](OCCN4CCCC4)CC[C@@H]32)co1	-14.8
COc1cccc(Cc2nnc(SC3CCOC3=O)o2)c1 (stereo unspecified)	-5.61
Cc1ccc(C(F)(F)F)cc1C(=O)N[C@H]1CN(CCO)C[C@@H]1C1CC1	-3.09
CCS(=O)(=O)c1ncc(CN2CCN(C)CC2)n1CCc1ccccc1	-3.88
CCNC(=O)[C@@H]1C[C@H](NC(=O)c2cncnc2C)CN1Cc1ccsc1	-17
O=C(c1ccncc1F)N1CCc2ncnc(N3CCOCC3)c2CC1	-9.98
Cc1cc(C)n(C2CCCN(C(=O)c3cccc(F)c3F)C2)n1 (stereo unspecified)	38.7
COCCn1ccc2c(cnc3nc(SC)nn32)c1=O	-4.98
Cc1nc(CNc2nc3c(s2)c(C)nn3C)cs1	-8.75
c1cc(C2CCCN2Cc2nnnn2C2CC2)cs1 (stereo unspecified)	-8.27
COCCN(C)CCN1CC2(CCN(C3CCCCC3)CC2)OC1=O	-4.75
Cc1cc(C)n(C2CN(CC(O)Cn3cccn3)C2)n1 (stereo unspecified)	7.73
Cc1cccc(CNC(Cc2ccsc2)c2nc(C)c(C)s2)n1 (stereo unspecified)	1.1
CNC(=O)[C@@H]1C[C@H]2CN(C(=O)c3ccco3)C[C@H]2N1C(C)C	-10.2
Cc1nc(N(C)C)nc(C)c1NC(=O)c1ccccc1C(F)(F)F	-11
Cc1cccc(-c2nc(C)nn2CC(=O)NC(C)C)c1	18.6
CCn1ncnc1C(C)NC(=O)C1CCN(C(C)C)CC1 (stereo unspecified)	-8.56
COc1c(CNCc2ccc(CN(C)C)cc2)c(C(C)C)nn1C	2.15

SMILES	cytotoxicity at 70.5 h [%]
Cc1ccc(OCC(O)CN2CCc3c(ncn3C3CC3)C2)cc1 (stereo unspecified)	-4.79
Cc1ccc(NC(=O)N(CCO)CCO)c(OCc2ccccc2)c1	10.5
Cc1ccc(Cl)cc1N1CCC(CNC(=O)CC(F)(F)F)C1 (stereo unspecified)	1.39
CCc1nnc(CN(CC)C(=O)C2CC(=O)N(C3CC3)C2)o1 (stereo unspecified)	-3.34
CC(=O)c1ccc(OCC(=O)NS(=O)(=O)c2cccnc2)cc1	17.6
CC(C)(O)CCc1cccc(C(=O)N2CCC[C@H]2CN2CCCC2)c1	32.8
Cc1cnc(C(=O)NCC2Cc3ccccc3O2)cn1 (stereo unspecified)	1.1
CC1CCN(c2nc3c(cnn3-c3ccccc3)c(=O)[nH]2)CC1	-5.83
Cc1cc(F)ccc1S(=O)(=O)N1C[C@@H](C)[C@@](C)(O)C1	-3.25
COc1c(C2CCCN2Cc2nc(C3CC3)no2)c(C)nn1C (stereo unspecified)	9.69
CNc1cc(C2CN(Cc3cccnc3NC)CCO2)nc(C)n1 (stereo unspecified)	-2.49
Cn1cc(CC2CCN(C(=O)NCc3cn4ccsc4n3)C2)cn1 (stereo unspecified)	23.7
Cn1cc(C(=O)N2CCCC(Cc3cnccn3)C2)cn1 (stereo unspecified)	-15.6
COc1ccc(Br)c(C(=O)NCC2CC2)c1	18.2
COC1COC2(CCN(S(=O)(=O)c3ccc(F)cc3)CC2)C1 (stereo unspecified)	17.1
CS(=O)(=O)N1CC[C@H]2C[C@@H](C(=O)N3CCOCC3)O[C@@H]2C1	2.65
Cc1nc(CN2C(=O)C[C@@H]3[C@@H]2CCN3C(=O)C2CCOCC2)cs1	-8.18
O=C(NC1CCS(=O)(=O)C1)c1cc(Sc2ncccn2)ccn1 (stereo unspecified)	-13.4
c1ccc2sc(N3CCC4(CCCN4Cc4ncc[nH]4)CC3)nc2c1	-7.49
CN(C)CCN(C)C(=O)c1ccccc1-n1cc(CN(C)C)cn1	-0.093
Cc1cc(C)c2nc(C3CC3)cc(C(=O)N3CCCC3C(N)=O)c2c1 (stereo unspecified)	26.2
CCc1nc(-c2cccc(C(=O)O)c2)no1	16.3
COCCN1CC[C@@H]2O[C@@H](COCC(=O)N3CCCC3)CC[C@@H]21	-3.26

SMILES	cytotoxicity at 70.5 h [%]
Cc1nn(C)c(N(C)C)c1CNC(C)Cc1c(F)cccc1F (stereo unspecified)	-16.6
O=C(NCCn1nc(C2CCNC2)c2cccnc21)c1ccccc1 (stereo unspecified)	-4.57
CN(C)[C@@H]1CCN(S(=O)(=O)c2cn(C)cn2)[C@H]1Cc1cccnc1	-2.89
Cc1ccc(-c2csc(N)c2C#N)c(C)c1	-15.8
COc1ccccc1CN1CC(O)CN(C(=O)OCC(C)C)CC1=O (stereo unspecified)	-10.9
CCCn1cc(C(=O)NCc2nnc(-c3ccc(C)nc3)o2)c(C)n1	-1.21
O=C(c1cccs1)N1CCN(C(=O)c2ncoc2-c2ccco2)CC1	5.95
Cc1cc(C(=O)N2CC[C@H](N3CCOCC3)[C@H](CCCO)C2)c(C)n1C	-16.1
Cc1cc(CN(C)CCN(C)c2ccccc2)no1	0.0635
CCCc1nc(C)cc(N2CCC3(CCC(=O)N(CCO)C3)CC2)n1	-4.4
COc1c(C2CCCN2C(=O)c2cnn(C)c2C2CC2)c(C)nn1C (stereo unspecified)	-2.81
Clc1ccccc1-c1nc(CNC2CCc3ncnn3C2)co1 (stereo unspecified)	-2.04
CCc1n[nH]c(C2CN(CCCOc3cccc(C)c3)CCO2)n1 (stereo unspecified)	-3.37
CCCNC(=O)C1CCN(Cc2csc(CC)n2)CC1	0.277
CCCc1cc(C(=O)N2CCCC2c2cccnc2)[nH]n1 (stereo unspecified)	-5.97
O=C(NC1CC1)[C@@H]1CCO[C@@H]2CCN(C3CCCC3)C[C@H]21	-0.698
Cc1cc(C)cc(C(=O)N2CCCC3(CCCC(=O)N3C)C2)c1 (stereo unspecified)	-14.4
Cc1ccc(C(=O)O)c(N2CC(C)(C)[C@@](C)(O)C2)n1	-10.6
COc1ccc(Oc2cncc(C3CCCN3C(C)=O)n2)cc1 (stereo unspecified)	31.7
CCn1cnnc1CNC(=O)N1CCN(Cc2ccco2)CC1	1.5
CCc1cc(CN2CCCCC2c2ccc(F)cc2)on1 (stereo unspecified)	-5.55
COC(=O)CN(Cc1ccccc1C)C(=O)CCNC(=O)C(C)(C)C	-6.72
O=S(=O)(C1CC1)N1CCC2(CC1)CC(Oc1ccccn1)CO2 (stereo unspecified)	2.03

SMILES	cytotoxicity at 70.5 h [%]
O=C(CNC(=O)Nc1c(F)cccc1Oc1ccccc1)NC1CC1	-9.17
O=C(CCn1cccn1)N1CCC(c2nnc(-c3ccsc3)o2)CC1	-8.63
O=C(N[C@@H]1CCNC[C@H]1O)c1ccc(F)c(Cl)c1	-7.9
c1cnnc(N2CCCC2CNc2nc3ccccc3o2)c1 (stereo unspecified)	-2.85
Cc1cc(CN(C)C2CCCN(Cc3noc(C4CC4)n3)C2)on1 (stereo unspecified)	-9.71
CCc1nc(CN2CCCC(NCc3nc(C)c(C)o3)C2)no1 (stereo unspecified)	-10.5
CC1(NC(=O)Cc2csc(-c3ccccc3Cl)n2)CCS(=O)(=O)C1 (stereo unspecified)	-88.9
CCCn1nccc1-c1cc(C2CCN(C(C)=O)CC2)ccn1	-8.34
Cc1ccc(CCNC(=O)Cn2nc(C)n(Cc3ccccc3)c2=O)s1	3.12
CS(=O)(=O)N1CCN(CC(O)COc2ccc(F)cc2)CC1 (stereo unspecified)	-11.1
CC(=O)N1CCC(C(=O)c2cc(C)cnc2N)CC1	-15.5
CN1CCN(C(=O)CCC(=O)c2cccs2)Cc2ccccc21	-0.893
O=C(O)Cn1ccc(=O)c2cc(F)ccc21	-10.1
Cc1cccc(CCC(=O)Nc2ccnn2C2CCS(=O)(=O)C2)c1 (stereo unspecified)	17
Cc1cc(C)c(S(N)(=O)=O)cc1C(=O)NCC1Cc2ccccc2O1 (stereo unspecified)	-5.64
Cn1cnnc1C1CCN(C(=O)CCCOCc2ccccc2)CC1	-11.3
CC(C)NC(=O)N1CCCC2(CC(C(=O)Nc3ccccc3)=NO2)C1 (stereo unspecified)	16.9
CC(C)[C@H]1CN(S(C)(=O)=O)C[C@@H]1NC(=O)c1ccnc(N)c1	-1.08
COCC(C)NC(=O)CN1CCC2(CC1)OCCO2 (stereo unspecified)	-3.81
